Experimental findings from patent US10119966B2, “Method of detecting auto-antibodies from patients suffering from rheumatoid arthritis, a peptide and assay kit” (STICHTING VOOR DE TECHNISCHE WETENSCHAPPEN, priority 2001, dated 2018) are described below.

Non-standard residues stand in square brackets, D forms with d. No end group written: not given here. Cit = NC(=O)NCCC[C@H](N)C(=O)O

Holding throughout (assay type): binding, human
Test [1] relates to sera from control patients and normal donors. In words: ELISA with sera from patients with other diseases and normal sera (specificity). The note with it: for % positive sera: cyclic peptide; for Specificity [%] cyclic: cyclic variant; for Specificity [%] cyclic / Specificity [%] linear: control patients and normal donors of Table 2; for Specificity [%] linear: linear variant. As to the method:
(§1) The most interesting peptides were synthesised in a slightly larger quantity to form a linear and a cyclic variant, and in most cases in a citrulline and arginine (=control) variant. These peptides were tested for reactivity with a series of sera from RA patients. The peptides were coated to ELISA plates and incubated with sera from RA patients. Each serum was tested in duplicate. Sera from healthy persons were used as negative control.
The above table represents ELISAs with sera obtained from patients suffering from RA and from patients suffering from various other autoimmune diseases. […] The arginine variant of peptide 0002-36 (R on position 0 and +2, i.e., instead of Cit in the formula) was also tested and shown to be negative with all tested RA and normal sera.
(§2) Using the above-described methods, seven XG peptide units were tested for reactivity with the 318 sera mentioned in Table 2 from patients suffering from rheumatoid arthritis. The specificity was determined with the aid of sera mentioned in Table 2 from control patients and normal donors.
(§3) In accordance with the methods described in this document, five XnonG peptide units were tested for reactivity with the same 318 sera mentioned in Table 2 from patients suffering from rheumatoid arthritis. Specificity was again determined with the aid of the sera mentioned in Table 2 from control patients and normal donors.

Test [2] deals with autoantibodies from patients suffering from rheumatoid arthritis (RA sera). In words: ELISA of coated peptides with sera from RA patients. The note with it: for Sensitivity [%] cyclic / Sensitivity [%] Linear: 318 RA sera; for Sensitivity [%] Linear: linear variant; for assessment of cyclic variants (in words): cysteine-bromoacetic acid cyclisation. The method, then:
The most interesting peptides were synthesised in a slightly larger quantity to form a linear and a cyclic variant, and in most cases in a citrulline and arginine (=control) variant. These peptides were tested for reactivity with a series of sera from RA patients. The peptides were coated to ELISA plates and incubated with sera from RA patients. Each serum was tested in duplicate. Sera from healthy persons were used as negative control. […]
as §2, §3

Test [3] has as its system XG-negative sera (RA sera comprising no XG reactive antibodies). The test can be described thus: ELISA of XnonG peptides with RA sera that do not react with XG peptides. The note with it: for Sensitivity [%] cyclic: cyclic variant; for Sensitivity [%] cyclic / Sensitivity [%] Linear: 80 of the 318 RA sera that did not react with any XG peptide of Table 6; for Sensitivity [%] Linear: linear variant. The method, then: as §1
The percentages mentioned in table 8 therefore show the percentage of the sera that did comprise antibodies to XnonG peptide units but comprised no XG reactive antibodies.

The mark [4] stands for this setting: ELISA with 186 RA sera, cyclic variants.
Setting [5] is: XnonG peptide units, cyclic variant.
The mark [6] stands for this setting: XG peptide units, cyclic variant.
[7] abbreviates: two cohorts of RA sera, in total 318 sera.

For “0002-36 (cyclic): cyclic variant of peptide 0002-36, cyclisized by the cysteine-bromoacetic acid method (HQFRF[Cit]G[Cit]SRAA; thioether (positions not given here); not fully specified (bridges); printed as H Q F R F Cit G Cit S R A A; also: cyclised by cysteine-bromoacetic acid method, no Cys in given chain, ring places not given here)”, the “% positive sera” value in test [1] (Colitis ulcerosa sera, N=40) is on record as 0%; in test [1] (Crohn's disease sera, N=40), 0%; in test [1] (Infectious diseases (malaria, chlamydia, mycoplasma, etc.) sera, N=250), 1%; in test [1] (Normal human serum, N=84), 0%; in test [1] (Osteoarthritis sera, N=29), 0%; in test [1] (PM, Polymyositis sera, N=11) it was 0%. For the same substance, the “% positive sera” value in test [1] (Prim Sjögren's syndrome sera, N=34) was found to be 3%; in test [1] (Psoriasis sera, N=10), 0%; in test [1] (SSc Scleroderma sera, N=10), 0%; in test [1] (Systemic Lupus Erythematodes sera, N=24), 0%; in test [1] (Vasculitis sera, N=30), 0%; in test [2] (RA sera, N=318, cyclic peptide), 71%. Also, the positive sera in test [2] (ELISA with 132 RA sera) and in test [2] (setting [4]) was 71% in each case. In test [2] (ELISA with 132 RA sera), the “positive sera (number/total)” value is listed as 94/132.

In test [2] (setting [4]), “0002-63 (cyclic): cyclic variant of peptide 0002-63 (HQFRF[Cit]GWSRAA; thioether (positions not given here); also: cyclised by cysteine-bromoacetyl thioether, Cys and bromoacetyl not shown in chain)” displayed a positive sera of 71%.

As to “A R F Q M Cit H Cit R L I R (ARFQM[Cit]H[Cit]RLIR) [0107-35]”, in test [3] (cyclic form), the “reacts with % of the sera that are not reactive with cyclic 0002-36” value is 18%. In test [3], the “Sensitivity [%] cyclic” value was determined as 18% and the “Sensitivity [%] Linear” value amounted to 17%. In test [1] (XnonG peptide units), the “Specificity [%] cyclic” value came to 99% and the “Specificity [%] linear” value amounted to 98%. Moreover, the “Sensitivity [%] cyclic” value in test [2] (setting [5]) was 61%. Further, in test [2] (XnonG peptide units), the “Sensitivity [%] Linear” value is recorded as 52%.

As to “A R F Q M R H Cit R L I R (ARFQMRH[Cit]RLIR) [0113-30]”, in test [3], the “Sensitivity [%] cyclic” value came to 19% and the “Sensitivity [%] Linear” value amounted to 18%. Also, in test [1] (XnonG peptide units), the “Specificity [%] cyclic” value was 100% and the “Specificity [%] linear” value was determined as 99%. Moreover, the “Sensitivity [%] cyclic” value in test [2] (setting [5]) is reported as 71%. The “Sensitivity [%] Linear” value in test [2] (XnonG peptide units) is recorded as 49%.

As to G V Y L V R Cit L Cit M M R [0218-36], in test [3], the “Sensitivity [%] cyclic” value came to 17% and the “Sensitivity [%] Linear” value was 17%. Besides, in test [1] (XnonG peptide units), the “Specificity [%] cyclic” value amounted to 98% and the “Specificity [%] linear” value was determined as 98%. For the same substance, in test [2] (setting [5]), the “Sensitivity [%] cyclic” value came out at 70%. The “Sensitivity [%] Linear” value in test [2] (XnonG peptide units) is 50%.

With GFFSA[Cit]GHRPLD [0101-7], the “reacted with % of RA sera” value in test [2] (cyclic variant, 186 RA-sera) is listed as 45%. Besides, the “reacted with % of the sera” value in test [2] (linear peptide) was found to be 55%.

Turning to “H Q F R F Cit G Cit S R A A (HQFRF[Cit]G[Cit]SRAA) [0002-36 (linear)]”, in test [2] (ELISA with 132 RA sera), the positive sera turned out to be 61% and the “positive sera (number/total)” value is listed as 80/132.

“H Q F R F Cit G Cit S R A A (HQFRF[Cit]G[Cit]SRAA) [0002-36]”: in test [1] (XG peptide units), the “Specificity [%] cyclic” value was 99% and the “Specificity [%] linear” value amounted to 99%. Besides, the “reactivity with RA sera (in words)” value in test [2] is recorded as “very satisfactory”. Further, in test [2] (setting [6]), the “Sensitivity [%] cyclic” value stood at 71%. In test [2] (XG peptide units), the “Sensitivity [%] Linear” value is given as 61%. Further, in test [2] (cyclic variants), the “assessment of cyclic variants (in words)” value is recorded as “of interest”. In test [2] (setting [7]), the “OD-values, cyclic versus linear variant” value is on record as “much higher” and the “frequency of reaction, cyclic versus linear variant” value was “react more frequently (and better) than the linear variant”.

Regarding “H Q K R G Cit G W S R A A (HQKRG[Cit]GWSRAA) [0002-27]”, in test [1] (XG peptide units), the “Specificity [%] cyclic” value turned out to be 98% and the “Specificity [%] linear” value is on record as 98%. Further, in test [2] (setting [6]), the “Sensitivity [%] cyclic” value is listed as 71%. Further, in test [2] (XG peptide units), the “Sensitivity [%] Linear” value was determined as 56%. In addition, the “assessment of cyclic variants (in words)” value in test [2] (cyclic variants) is recorded as “of interest”.

Turning to “H Q K W R Cit G R S Cit A A (HQKWR[Cit]GRS[Cit]AA) [0002-37]”, in test [1] (XG peptide units), the “Specificity [%] cyclic” value is listed as 98% and the “Specificity [%] linear” value is on record as 98%. In test [2] (setting [6]), the “Sensitivity [%] cyclic” value is on record as 70%. Also, the “Sensitivity [%] Linear” value in test [2] (XG peptide units) stood at 60%.

Turning to “H Q R R T Cit G G S R A A (HQRRT[Cit]GGSRAA) [0002-31]”, in test [1] (XG peptide units), the “Specificity [%] cyclic” value is 98% and the “Specificity [%] linear” value came to 98%. Also, the “Sensitivity [%] cyclic” value in test [2] (setting [6]) came out at 69%. Moreover, the “Sensitivity [%] Linear” value in test [2] (XG peptide units) came to 51%. Moreover, the “assessment of cyclic variants (in words)” value in test [2] (cyclic variants) was “of interest”.

As to “H Q R R V Cit G W S R A A (HQRRV[Cit]GWSRAA) [0002-29]”, in test [1] (XG peptide units), the “Specificity [%] cyclic” value stood at 98% and the “Specificity [%] linear” value was 98%. Moreover, the “Sensitivity [%] cyclic” value in test [2] (setting [6]) turned out to be 70%. In addition, in test [2] (XG peptide units), the “Sensitivity [%] Linear” value is listed as 57%. Besides, the “assessment of cyclic variants (in words)” value in test [2] (cyclic variants) is “of interest”.

As for HQFRF[Cit]GWSRAA [0002-63], in test [1] (XG peptide units), the “Specificity [%] cyclic” value is recorded as 98% and the “Specificity [%] linear” value worked out at 98%. Further, in test [2], the “reactivity with RA sera (in words)” value is “very satisfactory”. Besides, the “Sensitivity [%] cyclic” value in test [2] (setting [6]) turned out to be 71%. Besides, in test [2] (XG peptide units), the “Sensitivity [%] Linear” value is given as 60%. In addition, in test [2] (cyclic variants), the “assessment of cyclic variants (in words)” value is “of interest”.

In the case of HQRKW[Cit]GASRAA [0002-32], in test [1] (XG peptide units), the “Specificity [%] cyclic” value was determined as 98% and the “Specificity [%] linear” value came to 98%. Besides, the “Sensitivity [%] cyclic” value in test [2] (setting [6]) was 71%. Besides, the “Sensitivity [%] Linear” value in test [2] (XG peptide units) was determined as 61%.

For HQWNR[Cit]GWSRAA [0002-35], the “reactivity with RA sera (in words)” value in test [2] was “very satisfactory”.

“K P Y T V Cit K F M R R P (KPYTV[Cit]KFMRRP) [0107-32]” yielded a further % added in test [3] (cyclic peptide, added to cyclic 0107-35) of 8%. In test [3], the “Sensitivity [%] cyclic” value came out at 18% and the “Sensitivity [%] Linear” value was found to be 15%. Besides, in test [1] (XnonG peptide units), the “Specificity [%] cyclic” value amounted to 98% and the “Specificity [%] linear” value turned out to be 98%. Moreover, the “Sensitivity [%] cyclic” value in test [2] (setting [5]) was 63%. The “Sensitivity [%] Linear” value in test [2] (XnonG peptide units) is 48%.

On to “Y S F V W Cit S H A R P R (YSFVW[Cit]SHARPR) [0107-45]”, for which the “Sensitivity [%] cyclic” value stood at 18% in test [3] and 69% in test [2] (setting [5]). The figures for the “Sensitivity [%] Linear” value in test [3] and in test [2] (XnonG peptide units) were 16% and 51%, respectively. The “Specificity [%] cyclic” value in test [1] (XnonG peptide units) was determined as 99%. Moreover, the “Specificity [%] linear” value in test [1] (XnonG peptide units) amounted to 98%.

As for “arginine variant of peptide 0002-36: R on position 0 and +2, i.e., instead of Cit in the formula; control variant (HQFRFRGRSRAA) [reference compound]”, the “reactivity with normal sera” value in test [1] (all tested normal sera) is “negative”. The “reactivity with RA sera” value in test [2] (all tested RA sera) is “negative”.
